This passage reports TGI results from PubChem BioAssay (NCI).

Each structure is given as a SMILES string.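 Cultured in 96-well plates, cells were exposed to test compound for 48 hours across five concentrations. TGI: total growth inhibition.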 Bounds are passed on as bounds.

What all share (assay): NCI-60 cell line screen, 48 h
Assay [1] has as its system K-562 leukemia.
In assay [2] the test system is SN12C renal.
Assay [3] has as its system OVCAR-4 ovarian.
For assay [4], the system named is HL-60(TB) leukemia.
For assay [5], the system named is HS 578T breast.
Assay [6] deals with HCT-15 colon.
The subject of assay [7] is OVCAR-8 ovarian.
The test system of assay [8] is TK-10 renal.
Assay [9] relates to UACC-62 melanoma.
Assay [10] deals with HT29 colon.
In assay [11] the test system is COLO 205 colon.
Assay [12] concerns SK-OV-3 ovarian.
The subject of assay [13] is LOX IMVI melanoma.
The test system of assay [14] is EKVX NSCLC.
The test system of assay [15] is HCC-2998 colon.
Assay [16] has as its system M14 melanoma.
For assay [17], the system named is T-47D breast.
For assay [18], the system named is 786-0 renal.
Assay [19] relates to OVCAR-3 ovarian.
For assay [20], the system named is SR leukemia.

Turning to `COC(=O)CCc1ccc2c(c1)CC1(Cc3ccccc3C1)C2`, the TGI in [1], in [2], in assay [3], in [4], in assay [5] and in assay [6] was more than 100 µM in each case. Besides, the TGI in [7], in assay [8], in assay [9], in [10], in [11] and in assay [12] was more than 100 µM throughout. Besides, the TGI in assay [13], in assay [14], in assay [15], in [16], in assay [17] and in [18] was more than 100 µM in each case. This compound displayed a TGI in assay [19] of more than 100 µM.
As for `O=c1c2cc(-c3ccccc3)cnc2sn1-c1ccc(Oc2ccccc2)cc1`, the TGI is more than 100 µM in [1]; 89.8 µM in assay [2]; 51.9 µM in assay [3]; more than 100 µM in assay [4]; more than 100 µM in assay [6]; more than 100 µM in [7]. The TGI in assay [9] is more than 100 µM; in [10], 47.6 µM; in assay [11], more than 100 µM; in assay [12] it was more than 100 µM; in assay [14], more than 100 µM; in [15] it was more than 100 µM. The TGI was more than 100 µM in assay [16]; more than 100 µM in [17]; 36.4 µM in assay [18]; more than 100 µM in assay [19]; more than 100 µM in assay [20].
Regarding `C/C(=N/c1[nH]c(=O)cc2c1C(=O)CC2)N(C)C`, the TGI in assay [1], in assay [2], in [3], in [4], in assay [5] and in [6] was more than 200 µM throughout. For the same compound, the TGI in assay [7], in assay [8], in assay [9], in [10], in assay [11] and in [12] was more than 200 µM each time. The TGI in assay [13], in assay [14], in [15], in assay [16], in assay [17] and in assay [18] was more than 200 µM in each case. This compound also showed a TGI in [19] of more than 200 µM.
For the compound `CCOC1(OCC)N=C(N)C2(C#N)C3(C(=O)N(C(C)C)N=C3C)C12C#N` (stereo unspecified), the TGI in assay [1], in assay [2], in assay [3], in [4], in assay [6] and in assay [7] was more than 100 µM in each case. Moreover, the TGI in assay [9], in assay [10], in [11], in assay [12], in assay [14] and in assay [15] was more than 100 µM in each case. In addition, the TGI in assay [16], in [17], in assay [18], in assay [19] and in assay [20] was more than 100 µM throughout.
In the case of `CC(C)(C)C1(O)C=C(O)C(=O)N1NC(=O)c1ccccc1Nc1ccccc1` (stereo unspecified), the TGI is more than 100 µM in [1]; more than 100 µM in assay [2]; more than 100 µM in assay [3]; 7.25 µM in assay [4]; more than 100 µM in [5]; more than 100 µM in assay [6]. Besides, the TGI in assay [7] was more than 100 µM; in [8], more than 100 µM; in assay [9] it was 63 µM; in [10], more than 100 µM; in assay [11], more than 100 µM; in [12], more than 100 µM. For the same compound, the TGI was more than 100 µM in [13]; more than 100 µM in assay [14]; 62.9 µM in assay [15]; more than 100 µM in assay [16]; more than 100 µM in assay [17]; more than 100 µM in assay [18]. The compound further displayed a TGI in [19] of 31.9 µM.
With `CC1C2(C)OC(=N)C(C#N)(C(C)O2)C1(C#N)C#N` (stereo unspecified), the TGI in assay [1] is more than 100 µM; in assay [2], 29.8 µM; in [4] it was 41.1 µM; in assay [5], more than 100 µM; in assay [6], 28.8 µM; in assay [7], more than 100 µM. In addition, the TGI is more than 100 µM in assay [8]; 43.8 µM in assay [9]; more than 100 µM in [10]; 24.5 µM in [11]; more than 100 µM in assay [12]; 41.4 µM in assay [13]. Besides, the TGI in assay [14] is more than 100 µM; in [15], 50.5 µM; in assay [16], 35.8 µM; in [17], more than 100 µM; in [18] it was 62 µM; in [19], 51.5 µM.
Regarding `COC(=O)c1cnn2c1ccc1ccccc12`, the TGI in assay [1], in assay [2], in [4], in [5], in assay [6] and in [7] was more than 100 µM in each case. In addition, the TGI in assay [8], in assay [9], in assay [10], in assay [11], in assay [12] and in assay [13] was more than 100 µM throughout. Moreover, the TGI in [14], in [16], in [17], in assay [18] and in assay [19] was more than 100 µM in each case.
